# Measured values published in patent US10322187B2, “Reduced toxicity molecular conjugates of anti-fungal agents” (Lehigh University, priority 2015, dated 2019).
# Entries after “also recorded” stand apart in the source; their conditions may differ. Like-named read-outs stand apart in the source and are kept apart here.
# Key:
# [1] = tested on: HEK293T cells; experiment: Inhibition of cell growth, MTT cell viability; type: cell-based, human; conditions: 1, 10, 50, and 100 μM; FIG. 4
# Protocol: Human embryonic kidney HEK293 cells were cultured in Dulbecco's modified Eagle's medium (DMEM supplemented with 10% FBS, 100 U/mL penicillin, and 0.1 mg/mL SI-10 streptomycin) in a humidified atmosphere of 5% CO2 at 37° C.
# HEK293T cells were seeded in 96-well plates at a density of 6,000 cells/well and incubated overnight. Before treatment, compounds aliquots were solubilized in DMSO to obtain 10 mM stock solutions. Appropriate volumes of these stock solutions were added to DMEM media so the final concentration of DMSO is equal to 1%. After removal of cell media, 50 μL of treatment solutions were added to each well and incubated at 37° C. for 2 h. After treatment, the media was removed, and 100 μL of complete medium was added to each well before returning the plate to the incubator. Cell viability was determined after 72 h using the colorimetric MTT assay. Briefly, 10 μL of a 5 mg/mL MTT stock solution was added to the treated cells and incubated for 2 h at 37° C. The resulting formazan crystals were solubilized in 200 μL of DMSO, and the absorbance was measured at 580 nm using an Infinite 200 PRO microplate reader (Tecan). Cell viability was calculated against control cells treated with the vehicle in DMEM.
# [2] = tested on: sheep red blood cells; experiment: Hemolysis measurements, release of hemoglobin; type: cell-based
# Protocol: Sheep Red Blood Cells, 10%, in saline (Innovative Research, Novi, Mich.), were diluted in saline (pH 7.4) to a concentration of 4%, which corresponds to 4×10^7 cells/mL. All measurements were carried out in duplicate. Solutions of Amphotericin B (Sigma-Aldrich) were prepared by adding 10 μL of a DMSO solution containing a given concentration of the antibiotic (i.e., ranging from 0.2 mM to 50 mM) to 490 μL of PBS. After the resulting solution was vortex mixed for 30 seconds (s) it was incubated at 37° C. for 15 min. The resulting solution of antibiotic (500 μL) was then mixed with 500 μL of the 4% erythrocyte dispersion at 37° C. in a 1 mL plastic centrifuge vial to give a dispersion that was vortex mixed at slow rate for 5 s. After 1 h of incubation at 37° C., all samples were centrifuged (1500 g, Eppendorf centrifuge 5415C, 5000 rpm) at rt for 5 min. The supernatant (˜0.7 mL) from each plastic vial was carefully separated from sediment using a disposable glass pipette and quickly transferred to test tube. A volume of 50 μL of this supernatant was then transferred to a UV cell containing 500 μL of PBS that was maintained at 37° C. The UV spectrum was then scanned (450-650 nm) and the absorbance at 575 nm used to determine the extent of hemolysis. The extent of 0% and 100% of hemolysis was obtained from A575 values of experiments that were run in absence of AmphB (control, [A575,]o) and in presence, 100 μM AmphB ([A575]max), respectively.
# [3] = tested on: C. albicans, C. glabrata, C. neoformans, and C. gatti; experiment: In vitro antifungal activity, general statements on the four microbes; type: cell-based; conditions: on a molar basis
# Protocol: (§1) A similar sequence of reactions was carried out using lysine dicholamide in place of cholic acid afforded VJ-1147 of Table 2. To assess the antifungal properties of the diwalled VJ-1138 (Table 2) and 2a of Table 3, their in vitro activities were examined against four clinically relevant microbes, i.e., C. albicans, C. glabrata, C. neoformans, and C. gatti (Table 4).
# (§2) Minimum inhibitory concentrations (MIC) and minimum fungicidal concentrations (MFC) are the lowest concentrations that are required for completely inhibiting growth, and killing at least 99% of the fungi, respectively.
# [4] = Critical aggregation concentration (CAC) by UV absorptivity; type: physicochemical; conditions: PBS, 37° C., absorptivity at 409 nm
# Excerpt: If one lets: (i) T, m, and P represent the total, the monomeric, and the aggregate concentrations of this macrolide, respectively; (ii) ε represent the apparent molar absorptivity; and (iii) εm and εp represent the molar absorptivity for the monomeric and aggregate components, respectively, then it can be shown that ε=εp+(εm−εp)m/T. See Yamashita K, Janout V, Bernard E M, Armstrong D, and Regen, S L. Micelle/monomer control over the membrane disrupting properties of an amphiphilic antibiotic. J. Am. Chem. Soc. 117 (1995) 6249-6253. At concentrations that are in excess of its CAC, m is constant, and ε is expected to be inversely proportional to T. Thus, by measuring the apparent molar absorptivity as a function of the reciprocal of the concentration of VJ-1138, its CAC value is estimated to be 0.9 μM (from the intercept of two straight lines).
# Determination of Critical Aggregation Concentration (CAC) of AmphB and molecular conjugates. Solutions of AmphB and molecular conjugates in DMSO (Sigma-Aldrich) were prepared having a concentration of 1.00 mM. […] The UV spectrum was then recorded in the range of 250-550 nm. The absorbance at 408 nm was plotted as a function of the reciprocal value of the concentration of AmB and the critical aggregation concentration of the molecular conjugates was then determined, graphically.
# [5] = tested on: C. glabrata; experiment: Antifungal activities, MIC/MFC; type: cell-based; conditions: C. glabrata
# Protocol: as §1, §2
# (§3) The above molecules were tested for antifungal activity. Minimum inhibitory concentrations (MIC) and minimum fungicidal concentrations (MFC) are the lowest concentrations that are required for completely inhibiting growth, and killing at least 99% of the fungi, respectively. As is apparent from Table 4 below, there is a general trend; i.e., increased antifungal activity is observed as the length of the hydrocarbon chain that separates the facial amphiphile from the Amphotericin B moiety is decreased.
# [6] = tested on: C. neoformans; experiment: Antifungal activities, MIC/MFC; type: cell-based; conditions: C. neoformans
# Protocol: as §1, §2, §3
# [7] = tested on: C. gatti; experiment: Antifungal activities, MIC/MFC; type: cell-based; conditions: C. gatti
# Protocol: as §1, §2, §3
# [8] = tested on: C. albicans; experiment: Antifungal activities, MIC/MFC; type: cell-based; conditions: C. albicans
# Protocol: as §1, §2, §3
# [9] = tested on: Cryptococcus neoformans; experiment: Cryptococcosis mouse model, brain and lung tissue burden; type: in vivo, mice
# Protocol: Cryptococcosis mice are infected via tail vein injection of 5×10^4 C. neoformans cells. Inocula are verified by quantitative culture. Animals are identified by temporary ink marking, assigned to groups of 10 mice. Test compounds will be dosed starting on the day of infection. Initial studies will employ i.v., i.p. or oral (gavage) dosing (depending on the compound and the vehicle). Antifungal compounds are given for a period of 7 days. […] On day 8, the lung and brain are evaluated by quantitative culture per gram of tissue, by weighing organs and culturing serially diluted homogenates. These tissue burden studies permit detection of drug efficacy that may not be evident by using a survival endpoint.
# The mice were then sacrificed 7 days later for quantitative culture of brain and lung, with cryptococcal cells per gram tissue being expressed as logarithmic values (log 10). Mean values for each group were compared using the t-test.
# [10] = t-test, 70 mg/kg/day intraperitoneal
structure (smiles),measurement,setting,value
CC1OC(O[C@H]2/C=C/C=C/C=C/C=C/C=C/C=C/C=C/[C@H](C)[C@@H](O)[C@@H](C)[C@H](C)OC(=O)C[C@H](O)C[C@H](O)CC[C@@H](O)[C@H](O)C[C@H](O)C[C@]3(O)C[C@H](O)[C@@H](C(=O)NCCCCCCCC(=O)N(CCCCNC(=O)CC[C@@H](C)C4CCC5C6C(O)CC7CC(O)CCC7(C)C6CC(O)C54C)CCCNC(=O)CC[C@@H](C)C4CCC5C6C(O)CC7CC(O)CCC7(C)C6CC(O)C54C)[C@H](C2)O3)C(O)C(N)C1O (stereo partly shown) [VJ-1138],toxicity toward HEK293t cells compared with AmphB,[1],dramatically reduced
same,EH50 relative to AmphB,[2],approximately 2 orders of magnitude
same,hemolytic activity relative to AmphB,[2],dramatically reduced
same,"EH50, concentration required to induce 50% release of hemoglobin from erythrocytes",[2]; pH 7.4,375 µM
same,antifungal potency compared with AmphB,[3],approaches that of the native antibiotic; also recorded: approaching that of AmphB
same,critical aggregation concentration (CAC),[4],0.9 µM
same,MIC,"[5]; Table 2, 2nd value in brackets, read-out: minimum inhibitory concentration (MIC)",4 µM
same,MFC,[5]; first Table 4,4 µM
same,MIC,"[5]; first Table 4, read-out: MIC",2 µM
same,MIC,"[6]; Table 2, 3rd value in brackets, read-out: minimum inhibitory concentration (MIC)",2 µM
same,MFC,"[6]; first Table 4, read-out: MFC",2 µM
same,MIC,"[6]; first Table 4, read-out: MIC",1 µM
same,MIC,"[7]; Table 2, 4th value in brackets, read-out: minimum inhibitory concentration (MIC)",3 µM
same,MFC,"[7]; first Table 4, read-out: MFC",2 µM
same,MIC,"[7]; first Table 4, read-out: MIC",1 µM
same,MIC,"[8]; Table 2, 1st value in brackets, read-out: minimum inhibitory concentration (MIC)",2 µM
same,MIC,"[8]; first Table 4, lowest concentration completely inhibiting growth, read-out: MIC",1 µM
same,MFC,"[8]; first Table 4, lowest concentration killing at least 99% of the fungi, read-out: MFC",2 µM
same,mean lung burden,"[9]; CD1 male mice, intraperitoneal DMSO solution, 70 mg/kg/day, 7 days, untreated 6.34",5.10 log 10 cryptococcal cells per
same,mean brain burden,"[9]; CD1 male mice, intraperitoneal DMSO solution, 70 mg/kg/day, 7 days, untreated 8.22",7.66 log 10 cryptococcal cells per
same,"p, brain tissue burden compared to untreated mice",[9]; [10],0.0083
same,"p, lung tissue burden compared to untreated mice",[9]; [10],< 0.0001
